Test results published in patent publication US20180344726A1, “ABUSE RESISTANT TRANSDERMAL DELIVERY DEVICES AND COMPOSITIONS COMPRISING AN OPIOID AGONIST AND A NON-TRANSDERMALLY DELIVERED N-OXIDE DERIVATIVE OF AN OPIOID ANTAGONIST FOR THE TREATMENT OF PAIN” (priority 2015, published 2018).
Where “and” joins values, the source holds several entries; their conditions need not be identical. Equal entries are not always repeated. Where two headings read alike, the source gives them in different places.

Tests used:
[1] = Log P by potentiometric (pH-metric) octanol/water titration; type: physicochemical; conditions: Neutral species, […] C., […] KCl
Procedure: pKa analysis was performed using a pH-metric method. […] No precipitation or degradation was observed and two pKas were determined from the potentiometric data. Log P was determined using the potentiometric (pH-metric method). The sample was titrated in various ratios of octanol/water in two titrations covering the pH range 2.0-12.0 at concentrations of 1.9-1.1 mM. The shift of the aqueous pKas in the presence of octanol was used to determine the log P of the neutral species.

[2] = Concentration of saturated antagonist solutions in phosphate buffer pH 5.0; type: physicochemical; conditions: phosphate buffer pH 5.0, stirred overnight, filtered
Procedure: The determination of in vitro skin permeation was performed with saturated solutions of the respective antagonist species. Therefore an excess of the antagonist was weighed in phosphate buffer of pH 5.0 and stirred overnight. pH was monitored and, if necessary, adjusted. The cells were incubated at 32° C. Solutions were filtrated through a syringe filter (1 μm PTFE) prior to application into the diffusion cells. Concentrations of the solutions were determined.
The determination of naloxone and naloxone N-oxide in the acceptor medium of the in vitro skin permeations samples (receptor phase) was done by HPLC with UV-detection.

[3] = Intrinsic in vitro skin permeation of saturated antagonist solutions (Franz cell); type: in vitro ADME; conditions: saturated donor solution pH 5.0, human skin
Procedure: Diffusion cells (made of glass) with a vertical application and a volume of 5 ml were used. The human skin used for the analysis came from an aesthetic operation. Belly skin from female donors was supplied from plastic surgery. After arrival, skin was visually checked whether it was without any scars and stretch marks. A layer of 200-400 μm was cut with a dermatome. The permeation area of 0.82 cm^2 was punched out of the skin.
The diffusion cell consists of a donor chamber and a receptor compartment, the skin is fixed between both. The sampling and volume replacement were executed via an autosampler.

[4] = +37° C.; for Mean concentration of Naloxone N-oxide in human plasma samples / Mean concentration of Naloxone N-oxide in human whole blood samples: mean of n=3; for Concentrations of Naloxone N-oxide in human plasma samples / Concentrations of Naloxone N-oxide in human whole blood samples: single replicates
Description: Analytical procedures followed were based on those outlined in the “Guideline on Bioanalytical Method Validation”, EMA, CHMP, EWP, July 2011 and “Reflection paper for laboratories that perform the analysis or evaluation of clinical trial samples, 28 Feb. 2012, EMA/INS/GCP/532137/2010” with reference to the “Guidance for Industry, Bioanalytical Method Validation” recommendations issued by the U.S. Department of Health and Human Services, Food and Drug Administration, Center for Drug Evaluation and Research (CDER), Center for Veterinary Medicine (CVM), May 2001, BP.
Control blank human plasma and blood containing K2EDTA as an anti-coagulant, was obtained from Clinical Trials Laboratory Service or BAS volunteers and was stored at nominally −20° C. and +4° C., respectively, when not in use. The mass spectrometer used was an Applied Biosystems AP15000 with the following settings:
All instrument control, data collection, peak area integration and storage was performed using Analyst (version 1.5.2). Peak areas were then imported into Watson LIMS (version 7.2.0.02) for regression and quantification. The mass spectrometer response (peak area ratio of analyte to internal standard) of each calibration standard was calculated by Watson LIMS and plotted against the nominal (prepared) concentration. A weighted (1/x^2) least squares linear regression analysis was used to calculate an equation of the calibration line.
Any concentrations below this level are reported as below the limit of quantification (BLQ). Samples with initial concentrations above the upper limit of quantification ([…]) were re-injected with a reduced injection volume (alongside QC High with reduced injection volume) and sample concentrations interpolated against a calibration curve injected with normal injection volume.

[5] = spiked with Naloxone-N-oxide 10 ng/mL, 0 minutes
[6] = spiked with Naloxone-N-oxide 10 ng/mL, 10 minutes
[7] = spiked with Naloxone-N-oxide 10 ng/mL, 20 minutes
[8] = spiked with Naloxone-N-oxide 10 ng/mL, 30 minutes
[9] = spiked with Naloxone-N-oxide 10 ng/mL, 45 minutes
[10] = spiked with Naloxone-N-oxide 10 ng/mL, 60 minutes
[11] = spiked with Naloxone-N-oxide 10 ng/mL, 120 minutes
[12] = spiked with Naloxone-N-oxide 50 ng/mL, 0 minutes
[13] = spiked with Naloxone-N-oxide 50 ng/mL, 10 minutes
[14] = spiked with Naloxone-N-oxide 50 ng/mL, 20 minutes
[15] = spiked with Naloxone-N-oxide 50 ng/mL, 30 minutes
[16] = spiked with Naloxone-N-oxide 50 ng/mL, 45 minutes
[17] = spiked with Naloxone-N-oxide 50 ng/mL, 60 minutes
[18] = spiked with Naloxone-N-oxide 50 ng/mL, 120 minutes
[19] = spiked with Naloxone-N-oxide 250 ng/mL, 0 minutes
[20] = spiked with Naloxone-N-oxide 250 ng/mL, 10 minutes
[21] = spiked with Naloxone-N-oxide 250 ng/mL, 20 minutes
[22] = spiked with Naloxone-N-oxide 250 ng/mL, 30 minutes
[23] = spiked with Naloxone-N-oxide 250 ng/mL, 45 minutes
[24] = spiked with Naloxone-N-oxide 250 ng/mL, 60 minutes
[25] = spiked with Naloxone-N-oxide 250 ng/mL, 120 minutes

C=CC[N+]1([O-])CC[C@]23c4c5ccc(O)c4O[C@H]2C(=O)CC[C@@]3(O)[C@H]1C5 (some centres unmarked) [Naloxone N-oxide]
logP [1]: −0.42
Concentration saturated solution c [2]: 3960 µg/mL
Permeation through the skin (in words) [3]: Naloxone N-oxide did not permeate through the skin.
Conversion of Naloxone-N-oxide to Naloxone in plasma (in words) ([4]; 2 hour time course): small, but insignificant amount of conversion
Conversion to Naloxone in whole blood (in words) ([4]; 2 hour time course): rapidly converts to Naloxone in whole blood
Mean concentration of Naloxone N-oxide in human plasma samples [4, 5]: 0.01 µg/mL
Mean concentration of Naloxone N-oxide in human whole blood samples [4, 5]: 0.00745 µg/mL
Concentrations of Naloxone N-oxide in human plasma samples [4, 5]: 9.93 ng/mL and 9.87 ng/mL and 10.2 ng/mL
Concentrations of Naloxone N-oxide in human whole blood samples [4, 5]: 7.95 ng/mL and 7.69 ng/mL and 6.70 ng/mL
Mean concentration of Naloxone N-oxide in human plasma samples [4, 6]: 0.0102 µg/mL
Mean concentration of Naloxone N-oxide in human whole blood samples [4, 6]: 0.00602 µg/mL
Concentrations of Naloxone N-oxide in human plasma samples [4, 6]: 9.61 ng/mL and 10.4 ng/mL and 10.7 ng/mL
Concentrations of Naloxone N-oxide in human whole blood samples [4, 6]: 5.94 ng/mL and 6.11 ng/mL and 6.01 ng/mL
Mean concentration of Naloxone N-oxide in human plasma samples [4, 7]: 0.0103 µg/mL
Mean concentration of Naloxone N-oxide in human whole blood samples [4, 7]: 0.00453 µg/mL
Concentrations of Naloxone N-oxide in human plasma samples [4, 7]: 10.6 ng/mL and 10.3 ng/mL and 9.93 ng/mL
Concentrations of Naloxone N-oxide in human whole blood samples [4, 7]: 4.70 ng/mL and 4.15 ng/mL and 4.75 ng/mL
Mean concentration of Naloxone N-oxide in human plasma samples [4, 8]: 0.00996 µg/mL
Mean concentration of Naloxone N-oxide in human whole blood samples [4, 8]: 0.00313 µg/mL
Concentrations of Naloxone N-oxide in human plasma samples [4, 8]: 9.37 ng/mL and 10.1 ng/mL and 10.4 ng/mL
Concentrations of Naloxone N-oxide in human whole blood samples [4, 8]: 2.77 ng/mL and 3.14 ng/mL and 3.47 ng/mL
Mean concentration of Naloxone N-oxide in human plasma samples [4, 9]: 0.0104 µg/mL
Mean concentration of Naloxone N-oxide in human whole blood samples [4, 9]: 0.00215 µg/mL
Concentrations of Naloxone N-oxide in human plasma samples [4, 9]: 10.7 ng/mL and 10.0 ng/mL and 10.4 ng/mL
Concentrations of Naloxone N-oxide in human whole blood samples [4, 9]: 2.18 ng/mL and 2.27 ng/mL and 2.01 ng/mL
Mean concentration of Naloxone N-oxide in human plasma samples [4, 10]: 0.0103 µg/mL
Mean concentration of Naloxone N-oxide in human whole blood samples [4, 10]: 0.00187 µg/mL
Concentrations of Naloxone N-oxide in human plasma samples [4, 10]: 10.3 ng/mL and 10.6 ng/mL and 10.1 ng/mL
Concentrations of Naloxone N-oxide in human whole blood samples [4, 10]: 1.79 ng/mL and 1.81 ng/mL and 2.02 ng/mL
Mean concentration of Naloxone N-oxide in human plasma samples [4, 11]: 0.0103 µg/mL
Mean concentration of Naloxone N-oxide in human whole blood samples [4, 11]: 0.00151 µg/mL
Concentrations of Naloxone N-oxide in human plasma samples [4, 11]: 10.4 ng/mL (2×) and 10.1 ng/mL
Concentrations of Naloxone N-oxide in human whole blood samples [4, 11]: 1.55 ng/mL and 1.57 ng/mL and 1.41 ng/mL
Mean concentration of Naloxone N-oxide in human plasma samples [4, 12]: 0.0449 µg/mL
Mean concentration of Naloxone N-oxide in human whole blood samples [4, 12]: 0.0454 µg/mL
Concentrations of Naloxone N-oxide in human plasma samples [4, 12]: 48.5 ng/mL and 45.6 ng/mL and 40.5 ng/mL
Concentrations of Naloxone N-oxide in human whole blood samples [4, 12]: 48.9 ng/mL and 41.3 ng/mL and 46.0 ng/mL
Mean concentration of Naloxone N-oxide in human plasma samples [4, 13]: 0.046 µg/mL
Mean concentration of Naloxone N-oxide in human whole blood samples [4, 13]: 0.0259 µg/mL
Concentrations of Naloxone N-oxide in human plasma samples [4, 13]: 43.4 ng/mL and 48.7 ng/mL and 45.8 ng/mL
Concentrations of Naloxone N-oxide in human whole blood samples [4, 13]: 26.0 ng/mL and 25.0 ng/mL and 26.8 ng/mL
Mean concentration of Naloxone N-oxide in human plasma samples [4, 14]: 0.0484 µg/mL
Mean concentration of Naloxone N-oxide in human whole blood samples [4, 14]: 0.0204 µg/mL
Concentrations of Naloxone N-oxide in human plasma samples [4, 14]: 50.1 ng/mL and 47.1 ng/mL and 48.1 ng/mL
Concentrations of Naloxone N-oxide in human whole blood samples [4, 14]: 20.3 ng/mL and 21.1 ng/mL and 19.9 ng/mL
Mean concentration of Naloxone N-oxide in human plasma samples [4, 15]: 0.0463 µg/mL
Mean concentration of Naloxone N-oxide in human whole blood samples [4, 15]: 0.016 µg/mL
Concentrations of Naloxone N-oxide in human plasma samples [4, 15]: 46.9 ng/mL and 44.1 ng/mL and 47.9 ng/mL
Concentrations of Naloxone N-oxide in human whole blood samples [4, 15]: 15.9 ng/mL and 15.2 ng/mL and 16.9 ng/mL
Mean concentration of Naloxone N-oxide in human plasma samples [4, 16]: 0.0474 µg/mL
Mean concentration of Naloxone N-oxide in human whole blood samples [4, 16]: 0.0144 µg/mL
Concentrations of Naloxone N-oxide in human plasma samples [4, 16]: 47.6 ng/mL and 49.1 ng/mL and 45.4 ng/mL
Concentrations of Naloxone N-oxide in human whole blood samples [4, 16]: 14.1 ng/mL (2×) and 15.1 ng/mL
Mean concentration of Naloxone N-oxide in human plasma samples [4, 17]: 0.048 µg/mL
Mean concentration of Naloxone N-oxide in human whole blood samples [4, 17]: 0.0104 µg/mL
Concentrations of Naloxone N-oxide in human plasma samples [4, 17]: 50.0 ng/mL and 46.0 ng/mL and 48.1 ng/mL
Concentrations of Naloxone N-oxide in human whole blood samples [4, 17]: 10.7 ng/mL and 10.6 ng/mL and 10.0 ng/mL
Mean concentration of Naloxone N-oxide in human plasma samples [4, 18]: 0.0461 µg/mL
Mean concentration of Naloxone N-oxide in human whole blood samples [4, 18]: 0.00424 µg/mL
Concentrations of Naloxone N-oxide in human plasma samples [4, 18]: 47.6 ng/mL and 43.9 ng/mL and 46.8 ng/mL
Concentrations of Naloxone N-oxide in human whole blood samples [4, 18]: 3.99 ng/mL and 4.51 ng/mL and 4.22 ng/mL
Mean concentration of Naloxone N-oxide in human plasma samples [4, 19]: 0.233 µg/mL
Mean concentration of Naloxone N-oxide in human whole blood samples [4, 19]: 0.255 µg/mL
Concentrations of Naloxone N-oxide in human plasma samples [4, 19]: 236 ng/mL and 233 ng/mL and 229 ng/mL
Concentrations of Naloxone N-oxide in human whole blood samples [4, 19]: 245 ng/mL and 254 ng/mL and 265 ng/mL
Mean concentration of Naloxone N-oxide in human plasma samples [4, 20]: 0.225 µg/mL
Mean concentration of Naloxone N-oxide in human whole blood samples [4, 20]: 0.141 µg/mL
Concentrations of Naloxone N-oxide in human plasma samples [4, 20]: 218 ng/mL and 234 ng/mL and 223 ng/mL
Concentrations of Naloxone N-oxide in human whole blood samples [4, 20]: 135 ng/mL and 143 ng/mL and 144 ng/mL
Mean concentration of Naloxone N-oxide in human plasma samples [4, 21]: 0.232 µg/mL
Mean concentration of Naloxone N-oxide in human whole blood samples [4, 21]: 0.111 µg/mL
Concentrations of Naloxone N-oxide in human plasma samples [4, 21]: 228 ng/mL and 241 ng/mL and 226 ng/mL
Concentrations of Naloxone N-oxide in human whole blood samples [4, 21]: 107 ng/mL and 111 ng/mL and 115 ng/mL
Mean concentration of Naloxone N-oxide in human plasma samples [4, 22]: 0.229 µg/mL
Mean concentration of Naloxone N-oxide in human whole blood samples [4, 22]: 0.0976 µg/mL
Concentrations of Naloxone N-oxide in human plasma samples [4, 22]: 231 ng/mL and 229 ng/mL and 226 ng/mL
Concentrations of Naloxone N-oxide in human whole blood samples [4, 22]: 99.0 ng/mL and 96.8 ng/mL and 97.1 ng/mL
Mean concentration of Naloxone N-oxide in human plasma samples [4, 23]: 0.228 µg/mL
Mean concentration of Naloxone N-oxide in human whole blood samples [4, 23]: 0.0814 µg/mL
Concentrations of Naloxone N-oxide in human plasma samples [4, 23]: 225 ng/mL and 228 ng/mL and 230 ng/mL
Concentrations of Naloxone N-oxide in human whole blood samples [4, 23]: 78.2 ng/mL and 80.8 ng/mL and 85.3 ng/mL
Mean concentration of Naloxone N-oxide in human plasma samples [4, 24]: 0.231 µg/mL
Mean concentration of Naloxone N-oxide in human whole blood samples [4, 24]: 0.069 µg/mL
Concentrations of Naloxone N-oxide in human plasma samples [4, 24]: 242 ng/mL and 229 ng/mL and 221 ng/mL
Concentrations of Naloxone N-oxide in human whole blood samples [4, 24]: 73.9 ng/mL and 65.5 ng/mL and 67.7 ng/mL
Mean concentration of Naloxone N-oxide in human plasma samples [4, 25]: 0.225 µg/mL
Mean concentration of Naloxone N-oxide in human whole blood samples [4, 25]: 0.0493 µg/mL
Concentrations of Naloxone N-oxide in human plasma samples [4, 25]: 239 ng/mL and 226 ng/mL and 211 ng/mL
Concentrations of Naloxone N-oxide in human whole blood samples [4, 25]: 46.8 ng/mL and 52.8 ng/mL and 48.3 ng/mL
